Assay results as given in US12187672B2, “1,2-diacylglycerol compound, preparation method therefor, and immunomodulator containing same as active ingredient” (ENZYCHEM LIFESCIENCES CORPORATION, priority 2018, dated 2025).
Several values for one entry are separate records, joined by “and”; a condition that tells them apart may be missing. Identical values can stand only once.

Tests used:
IL-6 = assay: LPS-induced IL-6 secretion reduction in RAW264.7 cells (ELISA); assay type: cell-based, mouse; details: for IL-6 concentration (average ± deviation): sample 100 μg/ml 1 h, then LPS 1 μg/ml 24 h
Procedure, shortened: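 Mouse RAW264.7 macrophages in DMEM/10% FBS were plated at 5×10^4 cells/ml, rested for 15 h, treated with compound for 1 h, then stimulated with 1 μg/ml LPS for 24 h at 37 °C. IL-6 in the supernatant was measured by sandwich ELISA (HRP, OD 450 nm) and expressed as reduction rate or concentration.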

CXCL8 (IL-8) = CXCL8 (IL-8) expression reduction in Gemcitabine-treated THP-1 cells (ELISA); assay type: cell-based, human; details: THP-1 cells; for CXCL8 [IL-8] concentration (average ± deviation): sample 100 μg/ml 1 h, then Gemcitabine 2 μg/ml 24 h; for reduction of CXCL8 (IL-8) expression/secretion: Gemcitabine-treated, 100 μg/ml
Procedure, shortened: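 Human THP-1 macrophage-like cells in RPMI/10% FBS, plated at 1×10^6 cells/ml, pretreated 1 h with compound, then stimulated with Gemcitabine (2 μg/ml) for 24 h at 37° C, 5% CO2. Secreted IL-8 in the supernatant was measured by sandwich ELISA, read at 450 nm.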

STAT3 = assay: IL-6-induced STAT3 activity, SEAP expression in HEK-Blue IL-6 cells; assay type: cell-based; details: HEK-Blue IL-6 cells; for STAT3 activity_SEAP expression(%) (average ± deviation): sample 100 μg/ml 1 h, then IL-6 5 ng/ml 24 h, negative control = 100
Procedure, shortened: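 HEK-Blue IL-6 reporter cells at 1×10^5 cells/ml in DMEM with 10% FBS were exposed to compound for 1 h, then IL-6 (5 ng/ml) for 24 h at 37 °C. STAT3-driven SEAP in supernatant was detected with Quanti-Blue (1:10, ~30 min, 37 °C) at 650 nm.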

[1] = tested on: Aeruginosa K (PAK) of the genus Psuedomonas; assay: Infection inhibition test in mouse model of lung infection with bacteria (CFU in BALF); assay type: in vivo, Balb/c mice; details: 250 mg/kg oral
Protocol: For getting mice model whose lung are infected with bacteria, 12-week old Balb/c male mice were purchased from Koatech Corporation (South Korea) and maintained in certain pathogen-free facilities under moderate temperature and lights cycles. For obtain bacteria to induce lung infection, Aeruginosa K (PAK) of the genus Psuedomonas was incubated in LB broth or LB agar plate overnight at 37° C., and then the culture solution was centrifuged at 13,000×g for 2 minutes to obtain a bacterial pellet. Thereafter, the bacterial pellet was suspended in phosphate buffered saline (PBS), and the optical density of the serial dilution was measured and plated on an agar plate, so that bacterial inoculum having a colony forming unit (CFU) was obtained. A bacterial inoculum solution for infection was prepared at a concentration of 1×10^5 CFU per 20 μl, and the prepared PAK bacterial inoculum (1×10^5 CFU per mouse in 20 μl PBS) was administered to a total of 8 12-week-old Balb/c mice by nasal injection. Four of the PAK-administered groups were orally administered the compound of the present invention (EC_A21) at 250 mg/kg, and PBS was administered to the control group. After 4 hours, samples of bronchoalveolar lavage fluid (BALF) from P. aeruginosa-infected mice were collected, and the collected BALF samples were diluted 1:1000 with PBS. The diluted samples were plated on LB agar and then incubated overnight at 37° C. CFU levels in BALF were confirmed by measuring the number of surviving bacteria by a plate count method. The results are shown in Table 8, FIG. 7 and FIG. 8 below.

Compound: CCCCC/C=C\C/C=C\CCCCCCCC(=O)OC(COC(=O)CCCCCCCCC)COC(=O)C(C)C (centres unmarked) [EC_A100]
- IL-6 concentration (average ± deviation) (IL-6; Table 3): 0.749 ± 0.054 pg/µL
- CXCL8 [IL-8] concentration (average ± deviation) (CXCL8 (IL-8)): 115.1 ± 3.9 pg/µL

Compound: CCCCC/C=C\C/C=C\CCCCCCCC(=O)OC(COC(=O)CCCCCCC)COC(=O)C(C)C (centres unmarked) [EC_A88]
- IL-6 concentration (average ± deviation) (IL-6; Table 3): 0.792 ± 0.086 pg/µL
- CXCL8 [IL-8] concentration (average ± deviation) (CXCL8 (IL-8)): 91.4 ± 3.4 pg/µL

Compound: CCCCC/C=C\C/C=C\CCCCCCCC(=O)OC(COC(=O)CC)COC(=O)CCCCCCCCC (centres unmarked) [EC_A97]
- IL-6 concentration (average ± deviation) (IL-6; Table 3): 0.745 ± 0.015 pg/µL
- CXCL8 [IL-8] concentration (average ± deviation) (CXCL8 (IL-8)): 96.2 ± 0.2 pg/µL

Compound: CCCCC/C=C\C/C=C\CCCCCCCC(=O)OC(COC(=O)CCC)COC(=O)CCCCCCCCC (centres unmarked) [EC_A98]
- IL-6 concentration (average ± deviation) (IL-6; Table 3): 0.619 ± 0.036 pg/µL
- CXCL8 [IL-8] concentration (average ± deviation) (CXCL8 (IL-8)): 105 ± 2.0 pg/µL

Compound: CCCCC/C=C\C/C=C\CCCCCCCC(=O)OC(COC(=O)CCCC)COC(=O)CCCCCCCCCCC (centres unmarked) [EC_A93]
- IL-6 concentration (average ± deviation) (IL-6; Table 3): 0.765 ± 0.055 pg/µL
- CXCL8 [IL-8] concentration (average ± deviation) (CXCL8 (IL-8)): 110.9 ± 0.0 pg/µL

Compound: CCCCC/C=C\C/C=C\CCCCCCCC(=O)OC(COC(=O)CCCCCCCCC)COC(=O)C(C)(C)C (centres unmarked) [EC_A101]
- IL-6 concentration (average ± deviation) (IL-6; Table 3): 0.645 ± 0.057 pg/µL
- CXCL8 [IL-8] concentration (average ± deviation) (CXCL8 (IL-8)): 118.1 ± 2.8 pg/µL

Compound: CCCCC/C=C\C/C=C\CCCCCCCC(=O)OC(COC(=O)CC)COC(=O)CCCCCCCCCCCCCCC (centres unmarked) [EC_A78]
- IL-6 concentration (average ± deviation) (IL-6; Table 3): 0.708 ± 0.086 pg/µL
- CXCL8 [IL-8] concentration (average ± deviation) (CXCL8 (IL-8)): 108.5 ± 4.9 pg/µL

Compound: CCCCC/C=C\C/C=C\CCCCCCCC(=O)OC(COC(=O)CCCCCCCCC)COC(=O)C(C)CC (centres unmarked) [EC_A102]
- IL-6 concentration (average ± deviation) (IL-6; Table 3): 0.738 ± 0.070 pg/µL
- CXCL8 [IL-8] concentration (average ± deviation) (CXCL8 (IL-8)): 102.5 ± 4.4 pg/µL

Compound: CCCCCC=CCC=CCCCCCCCC(=O)OC(COC(=O)CCCCCCC)COC(=O)C(C)(C)C (centres unmarked) [EC_A89]
- IL-6 concentration (average ± deviation) (IL-6; Table 3): 0.736 ± 0.097 pg/µL
- CXCL8 [IL-8] concentration (average ± deviation) (CXCL8 (IL-8)): 123.1 ± 0.0 pg/µL

Compound: CCCCC/C=C\C/C=C\CCCCCCCC(=O)OC(COC(=O)CCCC)COC(=O)CCCCCCC (centres unmarked) [EC_A86]
- IL-6 concentration (average ± deviation) (IL-6; Table 3): 0.796 ± 0.045 pg/µL
- CXCL8 [IL-8] concentration (average ± deviation) (CXCL8 (IL-8)): 99.2 ± 4.9 pg/µL

Compound: CCCCC/C=C\C/C=C\CCCCCCCC(=O)OC(COC(=O)CCC)COC(=O)CCCCCCCCCCC (centres unmarked) [EC_A92]
- IL-6 concentration (average ± deviation) (IL-6; Table 3): 0.800 ± 0.038 pg/µL
- CXCL8 [IL-8] concentration (average ± deviation) (CXCL8 (IL-8)): 105.1 ± 0.2 pg/µL

Compound: CCCCC/C=C\C/C=C\CCCCCCCC(=O)OC(COC(=O)CC)COC(=O)CCCCCCC (centres unmarked) [EC_A87]
- IL-6 concentration (average ± deviation) (IL-6; Table 3): 0.705 ± 0.158 pg/µL
- CXCL8 [IL-8] concentration (average ± deviation) (CXCL8 (IL-8)): 134.4 ± 10.7 pg/µL

Compound: CCCCC/C=C\C/C=C\CCCCCCCC(=O)OC(COC(=O)CCCC)COC(=O)CCCCCCCCC (centres unmarked) [EC_A99]
- IL-6 concentration (average ± deviation) (IL-6; Table 3): 0.666 ± 0.075 pg/µL
- CXCL8 [IL-8] concentration (average ± deviation) (CXCL8 (IL-8)): 102.0 ± 19.3 pg/µL

Compound: CCCCC/C=C\C/C=C\CCCCCCCC(=O)OC(COC(C)=O)COC(=O)CCCCCCCCCCCCCCC (centres unmarked) [EC-18, 1-palmitoyl-2-linoleoyl-3-acetylglycerol, reference compound]
- decrease of IL-6 secretion/expression compared to the LPS-treated group (IL-6; 100 μg/ml): about 30%
- IL-6 concentration (average ± deviation) (IL-6; Table 2): 194 ± 11 pg/µL
- IL-6 concentration (average ± deviation) (IL-6; Table 3): 0.491 ± 0.063 pg/µL
- decrease of STAT3 activity compared to the IL-6 cytokine-treated group (STAT3; 100 μg/ml): about 25%
- STAT3 activity_SEAP expression(%) (average ± deviation) (STAT3): 173.0 ± 7.9%
- reduction of CXCL8 (IL-8) expression/secretion (CXCL8 (IL-8)): about 20%
- CXCL8 [IL-8] concentration (average ± deviation) (CXCL8 (IL-8)): 79.6 ± 6.0 pg/µL

Compound: CCCCC/C=C\C/C=C\CCCCCCCC(=O)OC(COC(=O)CCCCCC)COC(=O)CCCCCCCCCCCCCCC (centres unmarked) [EC_A83]
- IL-6 concentration (average ± deviation) (IL-6; Table 3): 0.658 ± 0.070 pg/µL
- CXCL8 [IL-8] concentration (average ± deviation) (CXCL8 (IL-8)): 107.7 ± 3.9 pg/µL

Compound: CCCCC/C=C\C/C=C\CCCCCCCC(=O)OC(COC(=O)CC)COC(=O)CCCCCCCCCCC (centres unmarked) [EC_A91]
- IL-6 concentration (average ± deviation) (IL-6; Table 3): 0.752 ± 0.068 pg/µL
- CXCL8 [IL-8] concentration (average ± deviation) (CXCL8 (IL-8)): 96.1 ± 3.6 pg/µL

Compound: CCCCC/C=C\C/C=C\CCCCCCCC(=O)OC(COC(=O)CCCCCCCCCCC)COC(=O)C(C)CC (centres unmarked) [EC_A96]
- IL-6 concentration (average ± deviation) (IL-6; Table 3): 0.788 ± 0.006 pg/µL
- CXCL8 [IL-8] concentration (average ± deviation) (CXCL8 (IL-8)): 103.7 ± 5.4 pg/µL

Compound: CCCCC/C=C\C/C=C\CCCCCCCC(=O)OC(COC(=O)CCCCCCCCCCCCCCC)COC(=O)C1CC1 (centres unmarked) [EC_A79]
- IL-6 concentration (average ± deviation) (IL-6; Table 3): 0.652 ± 0.145 pg/µL
- CXCL8 [IL-8] concentration (average ± deviation) (CXCL8 (IL-8)): 108.7 ± 8.3 pg/µL

Compound: CCCCC/C=C\C/C=C\CCCCCCCC(=O)OC(COC(=O)CCC)COC(=O)CCCCCCC (centres unmarked) [EC_A85]
- IL-6 concentration (average ± deviation) (IL-6; Table 3): 0.741 ± 0.071 pg/µL
- CXCL8 [IL-8] concentration (average ± deviation) (CXCL8 (IL-8)): 94.4 ± 3.4 pg/µL

Compound: CCCCC/C=C\C/C=C\CCCCCCCC(=O)OC(COC(=O)CCCCCCCCCCCCCCC)COC(C)C (centres unmarked) [EC_A21]
- bacterial CFU in BALF, average ± deviation ([1]; PAK 1×10^5 CFU nasal, BALF after 4 hours, 4 Balb/c mice): 14.0 ± 6.0 10^3 CFU/ml
- bacterial CFU in BALF, individual mouse ([1]; PAK 1×10^5 CFU nasal, BALF after 4 hours, Balb/c mice, 250 mg/kg): 8.0 10^3 CFU/ml and 19.0 10^3 CFU/ml and 20.0 10^3 CFU/ml and 14.0 10^3 CFU/ml
- bacterial CFU in BALF versus PAK alone group (in words) ([1]; fourth hour after PAK administration): significantly lower than that of the PAK alone group
- IL-6 concentration (average ± deviation) (IL-6; Table 2): 176 ± 2 pg/µL
- STAT3 activity_SEAP expression(%) (average ± deviation) (STAT3): 224.1 ± 22.4%
- reduction of CXCL8 (IL-8) expression/secretion (CXCL8 (IL-8)): about 20%
- CXCL8 [IL-8] concentration (average ± deviation) (CXCL8 (IL-8)): 86.2 ± 0.7 pg/µL
